The text below walks through data of a melting point compilation (Tetko et al.; mined from patent text by program, amines drawn as free bases though some values may be those of a salt).

For the compound `CCS(=O)c1ccc(-c2coc3ccc(-c4nnc(C)o4)nc23)cc1` (configuration not stated), the melting point (commonly the temperature of the solid-liquid transition) lay in the range of 207 to 208 °C.

In turn, `CCCOc1ccc(-c2ccc(=S)[nH]n2)cc1OC` displayed a melting point of 170 °C.

Take `Nc1cccc(C(=O)NCC23CC4CC(CC(C4)C2)C3)c1Cl`: the melting point came out at 154 °C.

For `CC1C(C)(C)C2=C(c3oncc3CC2)C1(C)C` (configuration not stated), the melting point turned out to be 81 °C.

`COc1ccc(C(=O)Cc2ccnc(NC(=O)c3ccccc3)c2)cc1` had a melting point of 136 to 139 °C.

In turn, `O=C(Cc1ccccc1)NC(C(=O)O)C(c1ccccc1)c1ccccc1` (configuration not stated) registered a melting point of 173 °C.

As to `CCOc1nn(-c2ccc(C(F)(F)F)cn2)cc1CCCOc1cc(CC(=O)O)ccc1OC`, the melting point fell in the range of 142 to 143 °C.

The compound `CC(C)Cn1cc(-c2ccc3nnn(Cc4ccc5ncccc5c4)c3n2)cn1` had a melting point of 160 to 163 °C.

`Cc1cc2c(cc1O)C(C1(c3ccccn3)CC1)N(C)CC2` (configuration not stated) gave a melting point of 218 °C.

For the compound `CN1CCN(c2cc(C(=O)Nc3ccc4c(c3)-c3c(c(C(N)=O)nn3-c3ccc5c(c3)OCO5)CC4)c(Cl)cn2)CC1`, the melting point was 305 to 307 °C.

The compound `CN1CCN(c2ccc(-c3cnn4c(N)c(-c5ccccc5Cl)cnc34)cc2)CC1` had a melting point of 197 to 200 °C.

Take `Cc1ccc(S(=O)(=O)Oc2ccc(S(=O)(=O)c3c(C(C)C)cn4ncccc34)cc2)cc1`: the melting point turned out to be 149 °C.

Compound `CC(C)(C)C1=CC(c2cccc([N+](=O)[O-])c2)C2=C(CCCC2=O)N1` (configuration not stated) displayed a melting point of 180 to 182 °C.

`O=C(O)c1ccc(C=Cc2csc3ccccc23)s1` yielded a melting point of 196 to 197 °C.

As to `CC1(C)Oc2ccc(-c3nnnn3CCCC(=O)O)cc2[C@@H](Oc2ccc(O)nn2)[C@]1(C)O`, the melting point is 116 to 126 °C.

As for `N#Cc1ccc(-c2cn(-c3ccc(C#N)cc3)c(Cc3ccccc3)n2)cc1`, the melting point lay within 168 to 188 °C.

`CCCCc1nc(CCC)n[nH]1` showed a melting point of 48.5 to 50 °C.

On to `COc1ccc2c(c1)C(c1ccc(OCCN3CCCCC3)cc1)c1c-2ccc2cc(OC)ccc12` (configuration not stated), for which the melting point was in the range of 162 to 164 °C.

Compound `N#CCOc1coc2ccccc2c1=O` showed a melting point of 145 to 146 °C.

`COC(=S)NC[C@H]1CN(c2ccc(-c3nc(Cn4cncn4)cs3)c(F)c2)C(=O)O1` displayed a melting point of 189 to 191 °C.

On to `COC(=O)c1cccc(C2C(C(=O)c3ccc(OC)cc3)=C(O)C(=O)N2c2nnc(C)s2)c1` (configuration not stated), for which the melting point was determined as 218 °C.

`O=c1[nH]c(=O)n(C2OC(CO)CC2O)cc1F` (configuration not stated) yielded a melting point of 169 to 171 °C.

Turning to `Cc1ccc2c(Cl)cc(C(=O)NCc3ccc(Cl)cc3)c(O)c2n1`, the melting point is 128 to 130 °C.

As to `CCCCCCCCCCCCCCCCCCCC1CN(C(=O)c2cc(OC)c(OC)c(OC)c2)CCN1C(=O)c1cc(OC)c(OC)c(OC)c1` (configuration not stated), the melting point was 76 °C.

`Cc1ccc(CI)cc1Cl` gave a melting point of 88 °C.

`CC(C)Cn1nc(-c2ccccc2)c(-c2ccccc2)c1CO`: the melting point stood at 154 °C.

Turning to `CCOC(=O)C=C(C)C=CC=O`, the melting point lay in the range of 49 to 50 °C.

Compound `CCC(=O)NCCc1c(-c2ccccc2)nn2ccc3occc3c12` came in with a melting point of 161 to 163 °C.

With `CC(C)(C)OC(=O)/C(=C/c1ccccc1Cl)C(=O)c1ccccc1O`, the melting point was in the range of 75 to 78 °C.

Consider `O=C(O)C1CCc2c(oc3cccc(Cl)c23)C1` (configuration not stated), for which the melting point lay within 189 to 190 °C.

For `O=C1c2ccc(Nc3ccc(F)cc3F)cc2CCc2ccc(OCCCN3CCOCC3)cc21`, the melting point was determined as 114 °C.

Compound `O=S(=O)(Cc1ccccc1Cl)c1nnc(C(F)(F)F)s1` returned a melting point of 103 °C.

As for `O=c1c2ccc([N+](=O)[O-])cc2nc(C(S)c2ncnc3[nH]cnc23)n1-c1ccccc1Cl` (configuration not stated), the melting point worked out at 218 °C.

For `O=C(NC/C=C\COc1cc(CN2CCCCC2)ccn1)c1ccc(Cl)s1`, the melting point lay within 75 to 77 °C.

Regarding `CCCOc1cc2c(cc1/C=C/c1ccc(C(=O)OCC)cc1)C(C)(C)CCC2(C)C`, the melting point was in the range of 97 to 100 °C.

`CN1CCN(CCCNc2ncc3c(n2)-c2ccccc2C(c2ccc(Cl)c(Cl)c2)C3)CC1` (configuration not stated): the melting point lay within 135 to 136 °C.

With `COc1cccc(N2CCN(C(=O)Oc3ccc(Oc4ccc(C(F)(F)F)cn4)cc3)CC2)c1`, the melting point is 109 to 111 °C.

With `COC(=O)C(=O)CC(=O)c1ccc(Cc2ccc(Cl)c(Cl)c2)cc1`, the melting point fell in the range of 104 to 106 °C.

`Cc1nnc(Cc2ccc(NC(=O)/C=C/c3cnn(C)c3-c3ccc(F)cc3)cc2)o1` displayed a melting point of 151 to 152 °C.

For the compound `O=C(Cl)c1ccc(C(=O)c2ccccc2)cc1`, the melting point came out at 92 °C.

Compound `CC(C)(CN)c1ccc(C(=O)NCCc2ccc3[nH]cc(C(=N)N)c3c2)cc1` had a melting point of 67 to 70 °C.

Take `Cn1cc(-c2cccc(N3CCc4c(sc5c4CCCC5)C3=O)c2CO)nc(Nc2cnn(CCO)c2)c1=O`: the melting point was 198 to 199 °C.

Take `Cc1ncn(-c2ccc(N)cc2F)n1`: the melting point was in the range of 122 to 125 °C.

The compound `CC1(C)CCC(C)(C)c2c(OCc3ccc(F)cc3)cc(C(=O)c3ccc4cc(C(=O)O)ccc4c3)cc21` had a melting point of 277 °C.

The compound `COC(=O)c1ccccc1C=Cc1ccc(Br)cc1` registered a melting point of 104 to 106 °C.

For `C[C@@H](S[C@H]1CO[C@H](c2ccc(C(=O)NCc3cccc4ccccc34)cc2)OC1)[C@](O)(Cn1cncn1)c1ccc(F)cc1F`, the melting point worked out at 97 °C.

With `O=C(CN1C(=O)C(Cl)=C(Cl)C1=O)Nc1ccc(Cl)cc1`, the melting point lay in the range of 212 to 214 °C.

On to `CC(O)(CCN1CCOCC1)c1ccc(-c2ccc(Cl)cc2)cc1` (configuration not stated), for which the melting point lay within 106 to 108 °C.

Turning to `CCOc1ncc(Cl)cc1C1OC(=O)NC1=O` (configuration not stated), the melting point fell in the range of 119 to 124 °C.

Take `CCCCCCNc1nc2nc(N)[nH]c(=O)c2s1`: the melting point was greater than 320 °C.

On to `NC(=O)CC1Nc2cccc3cccc(c23)S1(=O)=O` (configuration not stated), for which the melting point was in the range of 195 to 196 °C.

Compound `O=c1nc(-c2ccnc(OCc3ccccc3)c2)sc2ccccc12` came in with a melting point of 116 °C.

In turn, `CCOC(=O)C(Cc1cccc2ccccc12)C(=O)OCC` gave a melting point of 30 °C.

Compound `CCOC(=O)C(C)(C)NC(=O)c1c(Cl)c2cc(Oc3ccc(C(F)(F)F)cc3)ccc2n1-c1ccc(OC(C)C)cc1` had a melting point of 135 to 137 °C.

For the compound `CCOc1ccc(C=CC(=O)N2CCc3c([nH]c4ccccc34)C2c2ccc3c(c2)OCO3)cc1` (configuration not stated), the melting point is 199 to 200 °C.

`CCN(C(=O)C1CC1)c1cnn2ccccc12` registered a melting point of 83 to 86 °C.

In the case of `CSc1ccc(C=CC(=O)c2ccc(Br)cc2)cc1`, the melting point was found to be 161 °C.

`C=CCOC(=O)c1cccc(S(=O)(=O)n2c(=O)[nH]c(=O)c3ccc(Cl)cc32)c1` had a melting point of 187 to 189 °C.

Consider `COc1cc(/C=C/CO)ccc1OCc1nc(-c2ccco2)oc1C`, for which the melting point is 128 to 129 °C.

For `CC(=O)Nc1cccc(-c2cccnc2)c1`, the melting point lay within 72 to 74 °C.

`C[C@H](c1ccccc1)N1CCO[C@@H](c2ccc(C#N)cc2)C1` had a melting point of 83.6 °C.

`COc1ccc(C2(C#N)CCC(C(=O)O)CC2)c2c1oc1ccccc12` (configuration not stated) showed a melting point of 194 to 196 °C.

`C=COC(=O)NC1Cc2ccc(-c3ccc(=O)[nH]n3)cc2C1` (configuration not stated): the melting point was 205 to 206 °C.

`CN(C(=O)c1ccc(-c2ccccc2)cc1)c1ccccc1` gave a melting point of 99 to 102 °C.

Turning to `CC1=CC2=C(N3CN(n4cc(C)nc4-c4cc(Cl)ccc4Cl)C=C3N=N2)N(c2cc(Cl)ccc2Cl)C1`, the melting point was 130 °C.

Take `CN1CCN(c2ccccc2C=C2NC(=O)N(c3ccc(Cl)cc3)C2=O)CC1`: the melting point was in the range of 193 to 194 °C.

Turning to `CC(C)(C)CC(C)(C)c1cc(CO)c(O)c(CO)c1`, the melting point lay in the range of 76 to 77 °C.

As for `C=CCOCC(C)OC(=O)COc1ccc(Cl)c2cccnc12` (configuration not stated), the melting point amounted to 59 °C.

With `O=C(O)c1cnc2cc3c(cc2c1O)OCO3`, the melting point was greater than 290 °C.

On to `CS(=O)(=O)c1ccc(-n2nc(C(F)(F)F)cc2-c2nc3c(F)cccc3s2)cc1`, for which the melting point was 208 to 209 °C.

In turn, `CCS(=O)(=O)Nc1cccc(SCc2ccccc2)n1` returned a melting point of 87 to 92 °C.

Consider `CCOC(=O)c1cc(-c2csc(N(C)S(=O)(=O)c3ccccc3)n2)c(=O)[nH]c1C`, for which the melting point fell in the range of 231 to 234 °C.

As for `CC(C)n1cc(-c2nc(C#N)c(N)nc2-c2cccc(F)c2)ccc1=O`, the melting point was determined as 211 °C.

`N[C@H]1CC[C@@H](Oc2ccc3[nH]ncc3c2)CC1`: the melting point fell in the range of 144 to 146 °C.

Turning to `N#Cc1cc(NC(=O)c2cc3ccccc3s2)ccc1N1CCC(CCO)CC1`, the melting point came out at 218 °C.

Consider `O=C(SCCC(=O)N1c2ccccc2CCC1C(=O)O)c1ccccc1` (configuration not stated), for which the melting point was in the range of 99 to 101 °C.

Compound `N#CC1(c2cccs2)CCC(=O)CC1` gave a melting point of 118 to 119 °C.

Compound `COc1ccc(-c2nc3cc(Cl)c(Cl)cc3[nH]2)cc1[N+](=O)[O-]` showed a melting point of 250 °C.

In turn, `Cn1nnnc1-c1cn(C)c2cc(F)ccc2c1=O` showed a melting point of 264 to 267 °C.

For `CC(C(=O)O)c1ccc2c(c1)CCc1cccnc1S2` (configuration not stated), the melting point is 181 to 183 °C.

`N#CC(C#N)=Cc1ccc(OCc2ccccc2)cc1` returned a melting point of 146 to 148 °C.

`O=C(Nc1cccnn1)N1CCN(c2cncc(-c3ccc(F)cc3F)c2)CC1` returned a melting point of 172 to 173 °C.

In turn, `COc1c(Cl)cc(C(C)(C)N(CC(C)=O)C(=O)Cc2ccccc2)cc1Cl` had a melting point of 126 to 127 °C.

Take `COc1cc2nc(-c3cc(C)c(O)c(C)c3)[nH]c(=O)c2cc1OC`: the melting point is greater than 300 °C.

Compound `CCN1C(=O)C(N(CC(F)(F)C(F)(F)F)C(=O)C(C)C(N)=O)COc2ccccc21` (configuration not stated) gave a melting point of 152 °C.

`CCOC(=O)Cc1ccc(NC(=O)C(COc2ccccc2)NS(=O)(=O)c2ccc(F)cc2)cc1` (racemic) registered a melting point of 122 to 124 °C.

The compound `Cc1cc(Cl)c(OCCO[Si](C)(C)C(C)(C)C)cc1Nc1nnc2n1[C@H](c1ccc(F)cc1)COC2` showed a melting point of 141 to 142 °C.
